Results taken from publication doi:10.1101/2025.10.06.680794v3 (biorxiv, 2026).

Biological target: p53 core domain (WT p53) (Homo sapiens, UniProt P04637)
Assay: intrinsic fluorescence quenching
Type: binding

Sequence of p53 core domain (WT p53) (P04637 94-312): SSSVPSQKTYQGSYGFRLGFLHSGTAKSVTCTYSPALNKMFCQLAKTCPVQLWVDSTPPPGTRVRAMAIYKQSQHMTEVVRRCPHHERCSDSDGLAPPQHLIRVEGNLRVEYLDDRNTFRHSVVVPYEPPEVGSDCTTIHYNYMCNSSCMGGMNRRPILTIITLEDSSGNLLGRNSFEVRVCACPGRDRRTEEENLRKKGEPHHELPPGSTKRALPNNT

CC1(C)CC(NCC(=O)N2C/C(=C\c3ccc(C#N)cc3)C(=O)/C(=C/c3ccc(C#N)cc3)C2)C(C)(C)N1[O] (stereo not shown) [AKT-100]
Kd: 9.8 ± 0.1 µM
